Data from patent US7708990B2, “Coenzyme Q compositions persisting in blood” (Kaneka Corporation, priority 2004, dated 2010).

Assay: Plasma coenzyme Q10 levels after oral administration to rats (HPLC assay)
Format: in vivo, male SD strain rats
Conditions: plasma coenzyme Q10 (reduced + oxidized), oral 100 mg/kg in soybean oil
Experimental: A solution of reduced coenzyme Q10 (containing 1% by weight of oxidized coenzyme Q10) in soybean oil (reduced coenzyme Q10/soybean oil solution=20 mg/ml) was orally administered to male SD strain rats (6 weeks of age) at a dose of reduced coenzyme Q10 (containing 1% by weight of oxidized coenzyme Q10) of 100 mg/kg and, after 0.5, 1, 2, 3, 4, 5, 6, 8, 12 and 24 hours after administration, blood samples were collected and used for assaying plasma coenzyme Q10 (reduced coenzyme Q10 and oxidized coenzyme Q10) (n=4). Plasma coenzyme Q10 was assayed by HPLC. Thus, coenzyme Q7 (0.003 mg), ethanol (1 ml), distilled water (1 ml) and ferric chloride (0.01%) were added to each rat plasma sample (0.2 ml) and, after mixing up, hexane (3 ml) was added thereto and coenzyme Q10 was extracted with shaking. […]
Reduced coenzyme Q10 (containing 3% by weight of oxidized coenzyme Q10) was administered in the same manner as in Example 1, and plasma coenzyme Q10 levels were determined.
Oxidized coenzyme Q10 was administered in the same manner as in Example 1, and plasma coenzyme Q10 levels were determined.
Reduced coenzyme Q10 (containing 5% by weight of oxidized coenzyme Q10) was administered in the same manner as in Example 1, and plasma coenzyme Q10 levels were determined.

## COC1=C(OC)C(=O)C(C/C=C(\C)CC/C=C(\C)CC/C=C(\C)CC/C=C(\C)CC/C=C(\C)CC/C=C(\C)CC/C=C(\C)CC/C=C(\C)CC/C=C(\C)CCC=C(C)C)=C(C)C1=O [Comparative Example 1, Oxidized coenzyme Q10]
n=4
  Cmax: 1730 ng/mL
n=4, sampling up to 24 hours
  AUC: 12900 ng·h/mL
